The text below walks through data of patent US20090247589A1, “Monocarboxylates for modifying macrophage function” (The Brigham and Women's Hospital, Inc., priority 2006, published 2009).

Data set [1] concerns RAW 264.7 cells. As to conditions: LPS-stimulated RAW 264.7 cells; concomitant administration.
In data set [2] the test system is cardiac graft. The settings on record: continuous infusion by osmotic minipumps for 4 weeks; 60-80 μmol/kg/day; outliers excluded. The procedure:
(§1) The dose of nicotinic acid was 60-80 μmol/kg/day, corresponding to 500-1000 mg of nicotinic acid in a 70 kg human (depending on bioavailability).

Data set [3] concerns RAW 264.7 cells. As to conditions: MTT assay. The protocol:
as §1

The test system of data set [4] is RAW 264.7 cells. The data set can be described thus: Proinflammatory cytokine production by RAW 264.7 cells stimulated with IFN-γ plus uric acid. It counts as cell-based, murine.

SMILES strings stand for the structures.

On to `O=C(O)c1cccnc1` [nicotinic acid], for which, in data set [1], the “production of IL-6” value was “significantly reduced” and the “production of TNF-α” value is “significantly reduced”. In addition, the “graft condition (histology) compared to saline-treated controls” value in data set [2] is “near normal grafts”. The “effect on cell proliferation” value in data set [3] is given as “nor nicotinic acid have any significant effect”. Also, the “abrogation of uric acid + IFN-γ stimulated production of proinflammatory cytokines such as TNF-α” value in data set [4] (concomitant administration) is reported as “largely abrogated”.

In the case of `O=c1[nH]c(=O)c2[nH]c(=O)[nH]c2[nH]1` [uric acid], the “production of proinflammatory cytokines such as TNF-α (stimulating effect)” value in data set [4] (uric acid together with other macrophage stimulators such as IFN-γ) was “synergistically, further stimulating production”.
